According to patent publication US20120282377A1, “Methods and Formulations for Inhibiting Degradation of Photosensitive Sweeteners and Sweetener Enhancers” (priority 2011, published 2012):

Columns and labels:
Format in all cases: physicochemical
[1] = Stability of sweetness enhancer to sunlight exposure in PET bottle with and without UV barrier (Example 1); conditions: 25 mg/L solution, 395 Langleys (Atlas Sun Test XLS+)
Experimental: Sweetness enhancer 3-((4-amino-2,2 -dioxido-1H-benzo [c][1,2,6]thiadiazin-5-yl)oxy)-2,2-dimethyl-N-propylpropanamide was evaluated for stability to sunlight exposure when formulated into a beverage packaged in PET packaging (bottle) with and without a UV barrier. The UV barrier PET bottle contained a UV absorbent compound that absorbs light up to approximately 390 nm. When a 25 mg/L solution of 3-((4-amino-2,2-dioxido-1H-benzo[c][1,2,6]thiadiazin-5-yl)oxy)-2,2-dimethyl-N-propylpropanamide was exposed to 395 Langleys of radiation (Atlas Sun Test XLS+Instrument) in a clear PET bottle with no UV barrier, 92% of 3-((4-amino-2,2 -dioxido-1H-benzo [c][1,2,6]thiadiazin-5-yl)oxy)-2,2-dimethyl-N-propylpropanamide was lost to degradation. The light exposure in this experiment was approximately equivalent to 24 hours of continuous irradiation or 2-3 days of normal sunlight irradiation (due to day/night cycle). In contrast, when the same experiment was carried out in a UV barrier PET bottle, only 10% of the 3-((4-amino-2,2-dioxido-1H-benzo[c][1,2,6]thiadiazin-5-yl)oxy)-2,2-dimethyl-N-propylpropanamide was lost to degradation.

[2] = Photodegradation on exposure to sunlight / UV light (background statements); conditions: sunlight for 2-3 days
Description: Monatin (2-amino-4-carboxy-4-hydroxy-5-(3-indolyl)-pentanoic acid or 4-hydroxy-4-(3-indolylmethyl)-glutamic acid) is a natural sweetener. Monatin contains two chiral centers and therefore has four potential isomeric configurations: R,R-; S,S-; R,S-; and S,R-monatin. Different stereoisomers have different sweetening characteristics. Amino et al. have reported that the sweetness intensity is dependent on the optical purity of each stereoisomer (U.S. Patent Publication No. 2005/0020508).

[3] = Sucrose enhancer stability in prototype beverage formulation, UV irradiation in Atlas SunTest XLS+ (Example 6)
Experimental: The stability of sucrose enhancer 3-((4-amino-2,2-dioxido-1H-benzo[c][1,2,6]thiadiazin-5-yl)oxy)-2,2-dimethyl-N-propylpropanamide in regular PET bottles and PET bottles with UV barrier was evaluated. A control formulation was used that contained 106 mg sucrose enhancer in 4163 mg of a prototype beverage formulation. The prototype beverage formulation contained water, HFCS-55, citric acid, potassium citrate, EDTA, salts and vitamins. The samples were exposed to UV light using different Langley irradiation energy exposure at 40° C. in Atlas SunTest XLS+chamber.

[4] = prototype beverage formulation (control), PET, 0 Langley
[5] = prototype beverage formulation, PET with UV barrier, 66 Langley, 40° C.
[6] = prototype beverage formulation, PET with UV barrier, 197 Langley, 40° C.
[7] = prototype beverage formulation, PET with UV barrier, 395 Langley, 40° C.
[8] = prototype beverage formulation, PET, 66 Langley, 40° C.
[9] = prototype beverage formulation, PET, 197 Langley, 40° C.
[10] = prototype beverage formulation, PET, 395 Langley, 40° C.

## CCCNC(=O)C(C)(C)COc1cccc2c1C(N)=NS(=O)(=O)N2 [Sucrose enhancer, 3-((4-amino-2,2-dioxido-1H-benzo[c][1,2,6]thiadiazin-5-yl)oxy)-2,2-dimethyl-N-propylpropanamide]
[1]; UV barrier PET bottle
  lost to degradation: 10%
[1]; clear PET bottle with no UV barrier
  lost to degradation: 92%
[2]
  degradation upon exposure to sunlight: completely degraded to inactive ingredients
[3]; [4]
  Loss of Sucrose Enhancer (%): 0%
  Remaining Sucrose Enhancer (%): 100%
  Remaining Sucrose Enhancer (ppm): 21.5 ppm
[3]; [5]
  Loss of Sucrose Enhancer (%): 4%
  Remaining Sucrose Enhancer (%): 96%
  Remaining Sucrose Enhancer (ppm): 20.7 ppm
[3]; [6]
  Loss of Sucrose Enhancer (%): 5%
  Remaining Sucrose Enhancer (%): 95%
  Remaining Sucrose Enhancer (ppm): 20.5 ppm
[3]; [7]
  Loss of Sucrose Enhancer (%): 10%
  Remaining Sucrose Enhancer (%): 90%
  Remaining Sucrose Enhancer (ppm): 19.3 ppm
[3]; [8]
  Loss of Sucrose Enhancer (%): 37%
  Remaining Sucrose Enhancer (%): 63%
  Remaining Sucrose Enhancer (ppm): 13.6 ppm
[3]; [9]
  Loss of Sucrose Enhancer (%): 75%
  Remaining Sucrose Enhancer (%): 25%
  Remaining Sucrose Enhancer (ppm): 5.4 ppm
[3]; [10]
  Loss of Sucrose Enhancer (%): 92%
  Remaining Sucrose Enhancer (%): 7.9%
  Remaining Sucrose Enhancer (ppm): 1.7 ppm
